Assays:
in vitro [1] = details: human, cryopreserved hepatocytes
in vitro [2] = details: mouse, liver microsomes
in vitro [3] = details: dog, MDCK
MCF7 = experiment: cells; details: Homo sapiens
in vitro [4] = details: dog, liver microsomes
in vivo [5] = details: male, Beagle, dog, iv, 0.5 mg/kg
in vitro [6] = details: rhesus monkey, cryopreserved hepatocytes
in vitro [7] = details: mouse, cryopreserved hepatocytes
in vivo [8] = details: female, CD-1, mouse, iv, 1 mg/kg
in vivo [9] = details: male, Beagle, dog, po, 1.15 mg/kg
in vitro [10] = details: dog, cryopreserved hepatocytes
in vitro [11] = details: rat, cryopreserved hepatocytes
in vivo [12] = details: male, Sprague-Dawley, rat, po
in vivo [13] = details: cynomolgus monkey, iv, 0.5 mg/kg
in vitro [14] = details: human, liver microsomes
in vitro [15] = details: human, Caco-2
[16] = target: T1, Serine/threonine-protein kinase PLK4 (Homo sapiens) (UniProt O00444); details: Mus musculus; SCID-Beige; CAL-148; dose lower 6.0 mg/kg, dose upper […], route po, time 4.0 day
T1 sequence (whole entry): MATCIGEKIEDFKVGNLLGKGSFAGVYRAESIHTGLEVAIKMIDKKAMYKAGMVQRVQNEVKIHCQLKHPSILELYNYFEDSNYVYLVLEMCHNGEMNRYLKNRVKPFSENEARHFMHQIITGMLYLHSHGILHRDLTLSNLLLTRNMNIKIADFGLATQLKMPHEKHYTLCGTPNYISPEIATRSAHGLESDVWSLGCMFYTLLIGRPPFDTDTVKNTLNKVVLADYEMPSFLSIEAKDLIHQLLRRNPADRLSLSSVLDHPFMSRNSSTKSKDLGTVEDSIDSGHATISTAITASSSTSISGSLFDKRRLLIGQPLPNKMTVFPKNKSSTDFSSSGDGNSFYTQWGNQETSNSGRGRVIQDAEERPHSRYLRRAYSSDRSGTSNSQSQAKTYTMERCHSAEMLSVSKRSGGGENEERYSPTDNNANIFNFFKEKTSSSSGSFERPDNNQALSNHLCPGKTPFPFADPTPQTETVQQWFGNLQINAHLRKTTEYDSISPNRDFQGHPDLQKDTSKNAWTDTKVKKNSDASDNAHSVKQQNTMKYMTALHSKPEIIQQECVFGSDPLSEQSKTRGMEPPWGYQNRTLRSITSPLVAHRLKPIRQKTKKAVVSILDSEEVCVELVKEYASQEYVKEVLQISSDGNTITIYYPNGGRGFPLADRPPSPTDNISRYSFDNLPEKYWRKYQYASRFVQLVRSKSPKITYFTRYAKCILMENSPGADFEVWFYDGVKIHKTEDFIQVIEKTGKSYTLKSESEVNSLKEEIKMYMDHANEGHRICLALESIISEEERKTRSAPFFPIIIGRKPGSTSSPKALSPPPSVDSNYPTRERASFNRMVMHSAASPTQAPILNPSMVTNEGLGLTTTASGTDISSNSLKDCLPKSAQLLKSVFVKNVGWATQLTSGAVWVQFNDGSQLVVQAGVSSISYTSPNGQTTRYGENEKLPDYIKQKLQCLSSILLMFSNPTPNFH

in vitro [17] = details: rhesus monkey, liver microsomes
in vitro [18] = details: rat, liver microsomes
in vitro [19] = details: human, Caco-2; remark: listed apart in the source
[20] = target: T1, Serine/threonine-protein kinase PLK4 (Homo sapiens); details: Mus musculus; SCID-Beige; CAL-148; dose lower 6.0 mg/kg, dose upper […], route po, time 7.0 day
in vivo [21] = details: cynomolgus monkey, po, 1.25 mg/kg
in vivo [22] = details: female, CD-1, mouse, po, 5 mg/kg

Cc1cc(Nc2nc(N(C)c3c(F)cc(S(C)(=O)=O)cc3F)nc(-c3cn(C)nc3CO)c2C2CC2)n[nH]1
hepatocyte CLint at 1 µM (in vitro [1]): 12.8 µL/min/1e6 cells

COc1c(Nc2cc(C)[nH]n2)nc(Sc2ccc(S(C)(=O)=O)cc2F)nc1N1CCCCC1
microsomal CLint at 1 µM (in vitro [2]): 47 µL/min/mg | Papp A→B at 2 h, 1 µM (in vitro [3]): 8.1 ×10⁻⁶ cm/s

Cc1cc(Nc2nc(N(C)c3ccc(S(C)(=O)=O)cc3F)nc(-c3cnn(C)c3)c2C2CC2)n[nH]1
EC50 (MCF7): 0.43 µM

Cc1cc(Nc2nc(N(C)c3c(F)cc(S(C)(=O)=O)cc3F)nc(-c3cn(C)cn3)c2C2CC2)n[nH]1
microsomal CLint at 1 µM (in vitro [4]): < 7.7 µL/min/mg | hepatocyte CLint at 1 µM (in vitro [1]): < 3.8 µL/min/1e6 cells | clearance at 24 h (in vivo [5]): 30 mL/min/kg | hepatocyte CLint at 1 µM (in vitro [6]): < 3.8 µL/min/1e6 cells | hepatocyte CLint at 1 µM (in vitro [7]): < 3.8 µL/min/1e6 cells | EC50 (MCF7): 0.051 µM | clearance at 24 h (in vivo [8]): 11 mL/min/kg | microsomal CLint at 1 µM (in vitro [2]): < 7.7 µL/min/mg | bioavailability at 24 h (in vivo [9]): 98% | hepatocyte CLint at 1 µM (in vitro [10]): < 3.8 µL/min/1e6 cells | hepatocyte CLint at 1 µM (in vitro [11]): < 3.8 µL/min/1e6 cells | bioavailability at 24 h (in vivo [12]): 28% | clearance at 24 h (in vivo [13]): 14 mL/min/kg | microsomal CLint at 1 µM (in vitro [14]): < 7.7 µL/min/mg | Papp at […], 10 µM (in vitro [15]): 4.6 ×10⁻⁶ cm/s | inhibition [16]: Dose-dependent-effect | microsomal CLint at 1 µM (in vitro [17]): < 7.7 µL/min/mg | microsomal CLint at 1 µM (in vitro [18]): < 7.7 µL/min/mg | efflux ratio at […], 10 µM (in vitro [19]): 8.1 | inhibition [20]: Dose-dependent-effect | bioavailability at 24 h (in vivo [21]): 96% | bioavailability at 24 h (in vivo [22]): ≥ 100%

Cc1cc(Nc2nc(Oc3ccc(S(C)(=O)=O)cc3F)nc(-c3cnn(C)c3)c2C2CC2)n[nH]1
EC50 (MCF7): 2.5 µM

Cc1cc(Nc2nc(N(C)c3c(F)cc(S(N)(=O)=O)cc3F)nc(-c3cnn(C)c3)c2C2CC2)n[nH]1
hepatocyte CLint at 1 µM (in vitro [1]): 19.4 µL/min/1e6 cells

Cc1cc(Nc2nc(N(C)c3c(F)cc(S(C)(=O)=O)cc3F)nc(-c3ccnnc3)c2C2CC2)n[nH]1
hepatocyte CLint at 1 µM (in vitro [1]): 51.5 µL/min/1e6 cells | EC50 (MCF7): 0.092 µM

Cc1cc(Nc2nc(N(C)c3c(F)cc(S(C)(=O)=O)c(F)c3F)nc(-c3cnn(C)c3)c2C2CC2)n[nH]1
EC50 (MCF7): 0.067 µM

COc1c(Nc2cc(C)[nH]n2)nc(Sc2ccc(S(C)(=O)=O)cc2)nc1-c1cnn(C)c1
microsomal CLint at 1 µM (in vitro [2]): < 7.7 µL/min/mg

Cc1cc(Nc2nc(N(C)c3c(F)cc(S(C)(=O)=O)cc3F)nc(-c3cnn(C)c3CO)c2C2CC2)n[nH]1
hepatocyte CLint at 1 µM (in vitro [1]): 6 µL/min/1e6 cells | EC50 (MCF7): 0.14 µM | clearance at 24 h (in vivo [8]): 15 mL/min/kg | bioavailability at 24 h (in vivo [22]): 23%

Cc1cc(Nc2nc(N(C)c3ccc(S(=O)(=O)C4CC4)cc3F)nc(-c3cnn(C)c3)c2C2CC2)n[nH]1
hepatocyte CLint at 1 µM (in vitro [1]): 8.2 µL/min/1e6 cells | EC50 (MCF7): 0.21 µM

COc1c(Nc2cc(C)[nH]n2)nc(Sc2ccc(S(C)(=O)=O)cc2F)nc1-c1cnn(C)c1
EC50 (MCF7): 0.89 µM | microsomal CLint at 1 µM (in vitro [2]): < 7.7 µL/min/mg

CN(c1nc(Nc2cc(C3CC3)[nH]n2)c(C2CC2)c(-c2cnn(C)c2)n1)c1c(F)cc(S(C)(=O)=O)cc1F
hepatocyte CLint at 1 µM (in vitro [1]): 12 µL/min/1e6 cells | EC50 (MCF7): 0.057 µM

COc1c(Nc2cc(C)[nH]n2)nc(Sc2ccc(S(=O)(=O)Cc3cccc([N+](=O)[O-])c3F)cc2F)nc1N1CCCCC1
microsomal CLint at 1 µM (in vitro [2]): > 416 µL/min/mg | Papp A→B at 2 h, 1 µM (in vitro [3]): 0.1 ×10⁻⁶ cm/s

C#Cc1cc(Nc2nc(N(C)c3c(F)cc(S(C)(=O)=O)cc3F)nc(-c3cnn(C)c3)c2C2CC2)n[nH]1
hepatocyte CLint at 1 µM (in vitro [1]): 20.4 µL/min/1e6 cells | EC50 (MCF7): 0.23 µM

Cc1cc(Nc2nc(N(C)c3c(F)cc(S(C)(=O)=O)cc3F)nc(-c3cn(C)nc3C)c2C2CC2)n[nH]1
hepatocyte CLint at 1 µM (in vitro [1]): 50.1 µL/min/1e6 cells | EC50 (MCF7): 0.083 µM | clearance at 24 h (in vivo [8]): 10 mL/min/kg | bioavailability at 24 h (in vivo [22]): > 100%

Cc1cc(Nc2nc(N(C)c3c(F)cc(S(C)(=O)=O)cc3F)nc(N3CCOCC3)c2C2CC2)n[nH]1
hepatocyte CLint at 1 µM (in vitro [1]): 50.9 µL/min/1e6 cells | EC50 (MCF7): 0.15 µM

Cc1cc(Nc2nc(Sc3ccc(S(C)(=O)=O)cc3F)nc(-c3cnn(C)c3)c2C2CC2)n[nH]1
EC50 (MCF7): 1.7 µM

Cc1cc(Nc2nc(N(C)c3c(F)cc(S(C)(=O)=O)cc3F)nc(-c3cn4c(n3)COCC4)c2C2CC2)n[nH]1
hepatocyte CLint at 1 µM (in vitro [1]): < 3.8 µL/min/1e6 cells | EC50 (MCF7): 0.035 µM | clearance at 24 h (in vivo [8]): 3 mL/min/kg | Papp at […], 10 µM (in vitro [15]): 12 ×10⁻⁶ cm/s | efflux ratio at […], 10 µM (in vitro [19]): 4.4 | bioavailability at 24 h (in vivo [22]): 40%

Cc1cc(Nc2nc(Nc3ccc(S(C)(=O)=O)cc3F)nc(-c3cnn(C)c3)c2C2CC2)n[nH]1
EC50 (MCF7): 1.3 µM

Cc1cc(Nc2nc(N(C)c3c(F)cc(S(C)(=O)=O)cc3F)nc(-c3cnn(C)c3)c2C2CC2)n[nH]1
hepatocyte CLint at 1 µM (in vitro [1]): 5.3 µL/min/1e6 cells | EC50 (MCF7): 0.065 µM | clearance at 24 h (in vivo [8]): 7 mL/min/kg | Papp at […], 10 µM (in vitro [15]): 28 ×10⁻⁶ cm/s | efflux ratio at […], 10 µM (in vitro [19]): 1.1 | bioavailability at 24 h (in vivo [22]): > 100%

COc1c(Nc2cc(C)[nH]n2)nc(Sc2ccc(S(C)(=O)=O)cc2F)nc1N1CCOCC1
microsomal CLint at 1 µM (in vitro [2]): 31 µL/min/mg | Papp A→B at 2 h, 1 µM (in vitro [3]): 14 ×10⁻⁶ cm/s

Cc1cc(Nc2nc(N(C)c3c(F)cc(S(C)(=O)=O)cc3F)nc(-c3cn(C)c(C4CC4)n3)c2C2CC2)n[nH]1
hepatocyte CLint at 1 µM (in vitro [1]): 7.5 µL/min/1e6 cells | EC50 (MCF7): 0.034 µM | clearance at 24 h (in vivo [8]): 9 mL/min/kg | Papp at […], 10 µM (in vitro [15]): 28 ×10⁻⁶ cm/s | efflux ratio at […], 10 µM (in vitro [19]): 2.5 | bioavailability at 24 h (in vivo [22]): > 100%

Cc1cc(Nc2nc(N(C)c3cc(F)c(S(C)(=O)=O)cc3F)nc(-c3cnn(C)c3)c2C2CC2)n[nH]1
hepatocyte CLint at 1 µM (in vitro [1]): 42 µL/min/1e6 cells | EC50 (MCF7): 0.16 µM

Cc1cc(Nc2nc(N(C)c3ccc(S(C)(=O)=O)cc3Cl)nc(-c3cnn(C)c3)c2C2CC2)n[nH]1
EC50 (MCF7): 0.18 µM

CN(c1nc(Nc2cc(C(F)F)[nH]n2)c(C2CC2)c(-c2cnn(C)c2)n1)c1c(F)cc(S(C)(=O)=O)cc1F
EC50 (MCF7): 0.86 µM

Cc1cc(Nc2nc(N(C)c3c(F)cc(S(C)(=O)=O)cc3F)nc(-c3cc(C(C)(C)O)n(C)n3)c2C2CC2)n[nH]1
hepatocyte CLint at 1 µM (in vitro [1]): 6 µL/min/1e6 cells | EC50 (MCF7): 0.023 µM | clearance at 24 h (in vivo [8]): 12 mL/min/kg | Papp at […], 10 µM (in vitro [15]): 7.8 ×10⁻⁶ cm/s | efflux ratio at […], 10 µM (in vitro [19]): 6.9 | bioavailability at 24 h (in vivo [22]): 55%

— ChEMBL document CHEMBL6178012, “Discovery of RP-1664: A First-in-Class Orally Bioavailable, Selective PLK4 Inhibitor” (J Med Chem, 2025)
